One test deals with pTau. The experiment in a line: pTau assay (method not described). In kind it is cell-based.
A further test deals with GSK3α (Homo sapiens, UniProt P49840). Description: biochemical. Summed up: (§1)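 IC50 values were derived by non-linear regression from eleven-point dose series. Each reaction was held at room temperature for 20 hours and quenched with EDTA.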
For another test, the target named is GSK3β (Homo sapiens, UniProt P49841). Description: GSK3β kinase assay (Caliper LabChip3000, fluoresceinated peptide substrate). Format: biochemical. The gist of the method: as §1
Chain of GSK3β (P49841 whole entry, species assumed): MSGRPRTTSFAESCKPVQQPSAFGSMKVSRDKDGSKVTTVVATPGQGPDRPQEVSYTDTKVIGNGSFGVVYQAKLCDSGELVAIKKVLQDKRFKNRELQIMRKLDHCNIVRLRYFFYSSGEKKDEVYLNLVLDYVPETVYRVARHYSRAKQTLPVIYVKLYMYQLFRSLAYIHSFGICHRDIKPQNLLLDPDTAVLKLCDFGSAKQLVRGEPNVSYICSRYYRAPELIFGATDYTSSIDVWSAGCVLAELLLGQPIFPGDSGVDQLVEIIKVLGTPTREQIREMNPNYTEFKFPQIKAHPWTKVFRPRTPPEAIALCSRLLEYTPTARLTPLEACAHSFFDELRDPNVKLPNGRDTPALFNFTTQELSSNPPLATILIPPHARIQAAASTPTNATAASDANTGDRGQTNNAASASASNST
Setting [1] is: second value of the cell, 250 pM enzyme, 20 uM ATP, 20 hours at room temperature, read-out: GSK3β/α (nM): GSK3α IC50.
The mark [2] stands for this setting: first value of the cell, 250 pM enzyme, 20 uM ATP, 20 hours at room temperature, read-out: GSK3β/α (nM): GSK3β IC50.

Molecules are shown by their SMILES. Read-outs that look alike come from different tables or passages of the source.

Chain of GSK3α (P49840 whole entry, species assumed): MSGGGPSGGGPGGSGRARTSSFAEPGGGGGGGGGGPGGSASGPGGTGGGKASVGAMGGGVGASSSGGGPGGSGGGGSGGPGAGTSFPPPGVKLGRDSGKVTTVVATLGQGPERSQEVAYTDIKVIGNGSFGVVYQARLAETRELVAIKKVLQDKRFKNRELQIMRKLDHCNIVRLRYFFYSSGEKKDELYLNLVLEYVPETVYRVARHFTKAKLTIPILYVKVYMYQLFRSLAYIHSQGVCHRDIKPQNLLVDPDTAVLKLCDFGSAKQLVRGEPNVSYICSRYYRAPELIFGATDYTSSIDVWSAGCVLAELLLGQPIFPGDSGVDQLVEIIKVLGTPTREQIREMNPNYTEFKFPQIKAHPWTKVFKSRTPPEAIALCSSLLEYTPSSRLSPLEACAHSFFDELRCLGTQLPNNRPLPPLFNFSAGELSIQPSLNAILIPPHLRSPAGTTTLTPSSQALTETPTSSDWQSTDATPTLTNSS

As for `CC(C)(O)c1ccncc1NC(=O)c1ccnc(NC(=O)C2CC2)c1` [Example 16, 2-(Cyclopropanecarboxamido)-N-(4-(2-hydroxypropan-2-yl)pyridin-3-yl)isonicotinamide], the IC50 with pTau (read-out: pTau (nM)) stood at 2.8 nM; against GSK3α it was 0.2 nM; against GSK3β, 0.11 nM.
Consider `COc1cccc(-c2cncc(NC(=O)c3ccnc(NC(=O)C4CC4)c3)c2)n1` [Example 164, 2-(cyclopropanecarboxamido)-N-(6-methoxy-[2,3′-bipyridin]-5′-yl)isonicotinamide], for which the IC50 worked out at 270 nM with pTau (read-out: pTau), 1.4 nM at GSK3α (setting [1]) and 6 nM on GSK3β (setting [2]).
On to `O=C(Nc1cnccc1N1CCOCC1)c1ccnc(NC(=O)C2CC2)c1` [Example 30, 2-(Cyclopropanecarboxamido)-N-(4-morpholinopyridin-3-yl)isonicotinamide], for which the IC50 was found to be 23 nM in the test with pTau (read-out: pTau), 0.54 nM on GSK3α (setting [1]) and 1 nM against GSK3β.
Take `O=C(Nc1cnccc1-c1ccccc1)c1ccnc(NC(=O)[C@@H]2C[C@H]2c2ccccc2)c1` (relative stereo) [Example 99, 2-((Trans)-2-phenylcyclopropanecarboxamido)-N-(4-phenylpyridin-3-yl)isonicotinamide]: the IC50 with pTau (read-out: pTau) amounted to 4500 nM; on GSK3α (setting [1]), 24 nM; on GSK3β (setting [2]), 1.8 nM.
Taken in the same sequence, the figures for `O=C(Nc1cncc(Br)c1)c1ccnc(NC(=O)C2CC2)c1` [Example 15, 2-(Cyclopropanecarboxamido)-N-(5-bromopyridin-3-yl)isonicotinamide] were 610 nM, 11 nM and 16 nM.
Taken in the same sequence, the figures for `O=C(Nc1cncc(-c2ccc(F)nc2)c1)c1ccnc(NC(=O)C2CC2)c1` [Example 163, 2-(cyclopropanecarboxamido)-N-(6′-fluoro-[3,3′-bipyridin]-5-yl)isonicotinamide] were 130 nM, 1.7 nM and 6 nM.
For the compound `C[C@@H]1CN(c2ccncc2NC(=O)c2ccnc(NC(=O)C3CC3)c2)CCO1` (single isomer, unassigned) [Example 77], the IC50 came to 220 nM with pTau (read-out: pTau (nM)), 2.7 nM against GSK3α and 8.8 nM on GSK3β.
For `Cc1cc(-c2ccncc2NC(=O)c2ccnc(NC(=O)C3CC3)c2)cs1` [Example 43, 2-(Cyclopropanecarboxamido)-N-(4-(5-methylthiophen-3-yl)pyridin-3-yl)isonicotinamide], the IC50 came out at 49 nM in the test with pTau (read-out: pTau), 0.85 nM at GSK3α (setting [1]) and 2.8 nM at GSK3β (setting [2]).
On to `O=C(Nc1cnccc1N1CCCCC1)c1ccnc(NC(=O)C2CC2)c1` [Example 50, 2-(Cyclopropanecarboxamido)-N-(4-(piperidin-1-yl)pyridin-3-yl)isonicotinamide], for which the IC50 with pTau (read-out: pTau) stood at 23 nM; on GSK3α (setting [1]), 0.35 nM; against GSK3β it was 0.99 nM.
For `O=C(Nc1cncc(Oc2ccccc2)c1)c1ccnc(NC(=O)C2CC2)c1` [Example 107, 2-(cyclopropanecarboxamido)-N-(5-phenoxypyridin-3-yl)isonicotinamide] the same measures were 3300 nM, 9.1 nM and 19 nM.
Turning to `COc1ccccc1-c1cncc(NC(=O)c2ccnc(NC(=O)C3CC3)c2)c1` [Example 123, 2-(cyclopropanecarboxamido)-N-(5-(2-methoxyphenyl)pyridin-3-yl)isonicotinamide], the IC50 with pTau (read-out: pTau (nM)) was determined as 200 nM; at GSK3α (setting [1]), 1.4 nM; against GSK3β, 3.7 nM.
With `CCCc1ccc(-c2ccncc2NC(=O)c2ccnc(NC(=O)C3CC3)c2)cc1` [Example 72, 2-(Cyclopropanecarboxamido)-N-(4-(4-propylphenyl)pyridin-3-yl)isonicotinamide], the IC50 was found to be 250 nM with pTau (read-out: pTau), 6.4 nM at GSK3α (setting [1]) and 3.1 nM on GSK3β (setting [2]).
For `Cn1ccc(-c2cncc(NC(=O)c3ccnc(NC(=O)C4CC4)c3)c2)c1` [Example 151, 2-(cyclopropanecarboxamido)-N-(5-(1-methyl-1H-pyrrol-3-yl)pyridin-3-yl)isonicotinamide], the IC50 came out at 240 nM with pTau (read-out: pTau), 3.1 nM at GSK3α (setting [1]) and 8.8 nM at GSK3β (setting [2]).
For `O=C(Nc1cnccc1-c1ccc(OC(F)(F)F)cc1F)c1ccnc(NC(=O)C2CC2)c1` [Example 94, 2-(Cyclopropanecarboxamido)-N-(4-(2-fluoro-4-(trifluoromethoxy)phenyl)pyridin-3-yl)isonicotinamide] the same measures were 120 nM, 5 nM and 13 nM.

The values are drawn from patent US9809573B2, “Substituted pyridine derivatives useful as GSK-3 inhibitors” (priority 2013, dated 2017).
